How the values were obtained:
[1] = molecular target: T1, Gluocorticoid receptor of thymus of rats (Rattus norvegicus, UniProt P06536); assay: Glucocorticoid receptor binding (displacement of tritiated dexamethasone); settings: for affinity for glucocorticoid receptors (in words): conclusion; for relative affinity of tieing (ARL), Glucocorticoid: second table
T1 construct: The thymus were removed and homogenized at 0° C; from tissue; host or cells: rat thymus, 105,000 g supernatant (adrenalectomized male Sprague-Dawley rats)
T1 sequence (P06536 1-795): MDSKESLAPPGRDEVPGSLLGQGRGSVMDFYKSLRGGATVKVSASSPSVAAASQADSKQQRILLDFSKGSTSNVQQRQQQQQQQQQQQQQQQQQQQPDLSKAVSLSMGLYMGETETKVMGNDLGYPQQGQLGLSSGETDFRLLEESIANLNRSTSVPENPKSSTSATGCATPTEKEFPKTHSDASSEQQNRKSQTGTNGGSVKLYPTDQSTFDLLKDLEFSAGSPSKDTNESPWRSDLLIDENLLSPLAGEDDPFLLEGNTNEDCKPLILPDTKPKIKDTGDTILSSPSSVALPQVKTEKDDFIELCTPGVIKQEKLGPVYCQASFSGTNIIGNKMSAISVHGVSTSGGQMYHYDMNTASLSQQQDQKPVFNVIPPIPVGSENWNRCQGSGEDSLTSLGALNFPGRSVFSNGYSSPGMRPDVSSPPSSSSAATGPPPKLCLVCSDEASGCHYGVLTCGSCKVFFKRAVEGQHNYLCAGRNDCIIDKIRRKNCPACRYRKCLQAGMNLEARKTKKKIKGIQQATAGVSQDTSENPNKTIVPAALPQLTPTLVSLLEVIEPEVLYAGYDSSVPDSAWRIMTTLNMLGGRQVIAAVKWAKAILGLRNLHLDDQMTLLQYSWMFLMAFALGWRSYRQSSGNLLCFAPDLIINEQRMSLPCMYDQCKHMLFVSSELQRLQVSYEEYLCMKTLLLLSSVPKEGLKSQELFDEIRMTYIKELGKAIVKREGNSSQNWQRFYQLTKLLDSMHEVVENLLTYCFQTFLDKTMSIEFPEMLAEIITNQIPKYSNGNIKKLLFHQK
Experimental: D. Gluocorticoid receptor of thymus of rats
Male Sprague-Dawley EPOS rats weighing 160 to 200 g were surrenalectomized and the animals were killed 4 to 8 days later. The thymus were removed and homogenized at 0° C. in a buffered TS solution of 10 mM, Tris, 0.25M of Saccharose, 2 mM of dithiothreitol HCl for a pH of 7.4 using a polytetrafluoroethylene-glass Potter at a rate of 1 g of tissue per 10 ml of TS. […] The concentration of tied tritiated dexamethasone (B) was measured for each incubate by the adsorption on carbon-dextran technique.
The calculation of the relative affinity of […] (ARL) was identical for all of the above receptor tests. One traced the following two curves: the percentage of tied tritiated hormone B/T as a function of the logarithm of the cold hormone concentration and B/T as a function of the logarithm of the concentration of the cold test product. One determined the line of the equation. [formula]
The intersection of the I50 line and the curves permits one to determine the concentrations of the cold hormone of the reference (CH) and the cold test compound (CX) which inhibit by 50% the tieing of tritiated hormone with the receptor. The relative affinity of tieing (ARL) of the test product was determined by the equation: [formula]

[2] = test system: thymocytes of surrenalectomized rats; assay: Antiglucocorticoidal activity, incorporation of tritiated uridine in thymocytes; type: cell-based; settings: for opposition to the effect of dexamethasone on tritiated uridine incorporation (in words): with 5×10^-8 M dexamethasone; for inhibition at 1 µM / inhibition at 0.1 µM / inhibition at 0.01 µM: Rattus norvegicus, Thymocyte, read-out: % of inhibition of effect of Dexamethasone; for inhibition at 1 µM / inhibition at 0.1 µM / inhibition at 0.01 µM / % of inhibition of effect of Dexamethasone (symbol): second table; for inhibition at 1 µM / % of inhibition of effect of Dexamethasone (symbol): 5 × 10^-8 M dexamethasone + test product 10^-6 M; for inhibition at 0.1 µM: 5 × 10^-8 M dexamethasone + test product 10^-7 M; for inhibition at 0.01 µM: 5 × 10^-8 M dexamethasone + test product 10^-8 M
Experimental: III. Antiglucocorticoidal Activity
The test used was that of Dausse et al [Molecular Pharmacology, Vol. 13 (1977), p. 948-955] entitled "The relationship between glucocorticoid structure and effects upon thymocytes" for […] thymocytes. The thymocytes of surrenalectomized rats were incubated at 37° C. for 3 hours in a nutritive medium containing 5×10^-8 M of dexamethasone in the presence or absence of the test compound at different concentrations. Tritiated uridine was added and incubation was continued for one hour. The incubates were cooled and treated with a 5% trifluoroacetic acid solution and the mixture was filtered with Whatman GF/A paper. The filter was washed 3 times with a 5% trifluoroacetic acid solution and retained radioactivity on the filter was determined.

female rats = assay: Anti-implantation and abortive activities in female rats; type: in vivo, rat; settings: by mouth
Experimental: V. ANTI-IMPLANTATION AND ABORTIVE ACTIVITIES IN FEMALE RATS
The first day of gestation is determined by the presence of sperm in the vagina.
The animals were sacrificed between the 5th and 8th day after the last treatment and the uterus was examined.

granuloma = assay: Anti-inflammatory activity, classical granuloma test (cotton pellets); type: in vivo, Wistar rats; settings: subcutaneous dose of 50 mg/kg
Experimental: II. Anti-inflammatory Activity
The anti-inflammatory activity of the compound of Example 4 was determined by the classical granuloma test by a modification of the Meier et al test [Experientia, Vol. 6 (1950), p. 469] in which normal female Wistar rats weighing 100 to 110 g received an implantation of 2 pellets of cotton weighing 10 mg each under the thorax skin. The subcutaneous treatment which began immediately after the implantation for 2 days was 2 injections per day. 16 hours after the last injection, the animals were killed and the pellets together with the granuloma tissue formed were weighed in the fresh state and after 16 hours at 60° C. The weight of the granuloma was obtained by subtracting the initial weight of the cotton. The thymus was also removed and weighed to determine the thymolytic activity of the test product.

uterine endometrium = assay: Anti-progestomimetic activity versus progesterone, oral, change in uterine endometrium (McPhail); type: in vivo, immature female rabbits
Experimental: IV. Progestomimetic and Anti-progestomimetic Activity
a) Groups of immature female rabbits weighing about 1 kg had administered to them subcutaneously from day 1 to day 5, 5 μg of estradiol. The product tested was afterward administered orally from day 8 to day 11 in a volume of 0.5 cm^3 of water containing 0.5% of carboxymethyl cellulose and 0.2% of Tween. On day 12, the rabbits were sacrificed, their uteruses were retained and fixed in Bouin's solution and histologically studied.
The changes in the uterine endometrium were noted according to the method of McPhail.

| SMILES | affinity for glucocorticoid receptors (in words) [1] | opposition to the effect of dexamethasone on tritiated uridine incorporation (in words) [2] | relative affinity of tieing (ARL), Glucocorticoid ([1]; incubation 4 H at 0° C.) | relative affinity of tieing (ARL), Glucocorticoid ([1]; incubation 24 H at 0° C.) | inhibition at 1 µM [2] | inhibition at 0.1 µM [2] | inhibition at 0.01 µM [2] | % of inhibition of effect of Dexamethasone (symbol) [2] | other results |
| --- | --- | --- | --- | --- | --- | --- | --- | --- | --- |
| CC#C[C@]1(O)CC[C@H]2[C@@H]3CCC4=CC(=O)CCC4=C3[C@@H](c3ccc(N(C)C)cc3)C[C@@]21C [Example 19, 11β-[4-(N,N-dimethylamino)-phenyl]-17α-(prop-1-ynyl)-Δ^4,9-estradiene-17β-ol-3-one] | very remarkable affinity | opposed this effect |  |  |  |  |  |  | RESULTS (anti-implantation / abortion) (female rats; days 1, 2, 3, 2 mg/kg/day): No action; RESULTS (anti-implantation / abortion) (female rats; days 1, 2, 3, 10 mg/kg/day): Non-implantation; RESULTS (anti-implantation / abortion) (female rats; days 4, 5, 6, 2 mg/kg/day): Non-implantation; RESULTS (anti-implantation / abortion) (female rats; days 4, 5, 6, 10 mg/kg/day): Non-implantation; RESULTS (anti-implantation / abortion) (female rats; days 7, 8, 9, 2 mg/kg/day): Abortion; RESULTS (anti-implantation / abortion) (female rats; days 7, 8, 9, 10 mg/kg/day): Abortion; RESULTS (anti-implantation / abortion) (female rats; days 10, 11, 12, 2 mg/kg/day): Abortion; RESULTS (anti-implantation / abortion) (female rats; days 10, 11, 12, 10 mg/kg/day): Abortion; Abortion, % of the animals (female rats; days 13, 14, 15, 2 mg/kg/day): 50%; RESULTS (anti-implantation / abortion) (female rats; days 13, 14, 15, 10 mg/kg/day): Abortion; glucocorticoidal anti-inflammatory activity (granuloma): did not show any glucocorticoidal anti-inflammatory activity; CHANGE IN THE ENDOMETRIUM (uterine endometrium; progesterone 0.2 mg subcutaneously + 0.3 mg/kg by mouth): 2.8 McPHAIL UNTS; CHANGE IN THE ENDOMETRIUM (uterine endometrium; progesterone 0.2 mg subcutaneously + 1 mg/kg by mouth): 2.1 McPHAIL UNTS; CHANGE IN THE ENDOMETRIUM (uterine endometrium; progesterone 0.2 mg subcutaneously + 3 mg/kg by mouth): 1.4 McPHAIL UNTS; CHANGE IN THE ENDOMETRIUM (uterine endometrium; progesterone 0.2 mg subcutaneously + 10 mg/kg by mouth): 0.6 McPHAIL UNTS; CHANGE IN THE ENDOMETRIUM (uterine endometrium; progesterone 0.2 mg subcutaneously + 20 mg/kg by mouth): 0 McPHAIL UNTS |
| C[C@]12C[C@H](c3ccc([N+](C)(C)[O-])cc3)C3=C4CCC(=O)C=C4CC[C@H]3[C@@H]1CC[C@@]2(O)C#CCl [Example 26, N-oxide of 11β-[4-(N,N-dimethylamino)-phenyl]-21-chloro-19-nor-17α-Δ^4,9-pregnadiene-20-yne-17β-ol-3-one] |  | opposed this effect | 9 | 14 | 75% | 34% | 14% |  |  |
| CN(C)c1ccc([C@H]2C[C@@]3(C)[C@@H](CC[C@@]3(O)C#Cc3ccccc3)[C@@H]3CCC4=CC(=O)CCC4=C32)cc1 [Example 29, 11β-[4-(N,N-dimethylamino)-phenyl]-21-phenyl-19-nor-17α-Δ^4,9-pregnadiene-20-yne-17β-ol-3-one] |  | opposed this effect | 46 | 94 |  | 57% | 18% | * (A dose of 10^-6 M inhibited totally the effect of dexamethasone) |  |
| CC#C[C@]1(O)CC[C@H]2[C@@H]3CCC4=CC(=O)CCC4=C3[C@@H](c3ccc([N+](C)(C)[O-])cc3)C[C@@]21C [Example 35, N-oxide of 11β-[4-(N,N-dimethylamino)-phenyl]-17α-(prop-1-ynyl)-Δ^4,9-estradiene-17β-ol-3-one] |  | opposed this effect | 7,8 | 5 | 50% | 21% | 4% |  |  |
| C=CC[C@]1(O)CC[C@H]2[C@@H]3CCC4=CC(=O)CCC4=C3[C@@H](c3ccc(N(C)C)cc3)C[C@@]21C [Example 37, 11β-[4-(N,N-dimethylamino)-phenyl]-17α-(prop-2-enyl)-Δ^4,9-estradien-17β-ol-3-one] | very remarkable affinity | opposed this effect | 178 | 221 |  |  |  | * (A dose of 10^-6 M inhibited totally the effect of dexamethasone) |  |

— patent US5043332A, “Novel 11β-substituted -19-nor-steriods” (priority 1981, dated 1991)
